Test results as given in patent publication US20250152545A1, “NOVEL ANTIVIRAL COMPOSITIONS COMPRISING OLEIC ACID” (SUBINTRO LIMITED, priority 2021, published 2025).

Assays:
Type in all cases: cell-based
[1] = tested on: H1N1 (strain A/Switzerland/7717739/2013)
[2] = tested on: SARS-COV-2 infected ALI cultured human nasal epithelium; conditions: apical treatment, apilimod (as mesylate) 2 mg/ml 50 uL; 48 hrs post virus inoculation
[3] = tested on: SARS-COV-2 (strain BetaCoV/France/IDF0571/2020); assay: SARS-COV-2 viral load in apical wash of infected ALI cultured human nasal epithelium (RT-PCR); conditions: apical treatment; apilimod (as mesylate) 2 mg/ml 50 uL and/or surfactants 0.15% w/w polysorbate 80 + 0.2% w/w oleic acid; apical wash 48 hrs post inoculation; MOI 0.1
From the text: Primary human nasal, trachea, and bronchial epithelial cells can be cultured and differentiated at an air-liquid interface (ALI), forming a pseudostratified mucociliary airway epithelium that is composed of ciliated cells, goblet cells, club cells, and basal cells with an arrangement closely reflective of an in vivo cellular organization. This in vitro model of human airway epithelium (HAE) cultured at an ALI (HAE-ALI) closely recapitulates many important characteristics of respiratory virus-host cell interactions seen in the infected upper and lower airways in vivo and has been used to study many human respiratory viruses, including SARS-COV-2. […]
Virus load was quantified by RT-PCR as reported by Pizzorno et al. (Cell Rep Med. 1 (4): 100059, 2020). […] Viral RNA will be quantified by RT-qPCR (Express One-Step Superscript™ qRT-PCR kit, Invitrogen). SARS-COV-2-specific primer and probes used for viral genome quantification as follows: Target: ORF1b-nsp14 Forward primer (HKU-ORF1b-nsp14F) 5′-[…]-3′ Reverse primer (HKU-ORF1b-nsp14R) 5′-[…]-3′ Probe (HKU-ORF1b-nsp141P) 5′-FAM-[…]-TAMRA-3′. Ct data were determined and relative changes in gene expression were calculated using the […] and shown as the fold reduction of genome copy number (ORF1b-nsp14 gene of SARS-COV-2) relative to the mean of vehicle treated infected control.

CCC(CC)O[C@@H]1C=C(C(=O)O)C[C@H](N)[C@H]1NC(C)=O [oseltamivir carboxylate]
reduction of viral load (assay control) ([1]; 10 µM in a basal chamber, Day 0, 24 hrs post inoculation): 1.7 log | reduction of viral load (genome copy number) compared with virus infection control ([1]; apical treatment, oseltamivir carboxylate 1 μM and/or surfactants 0.15% polysorbate 80 + 0.2% oleic acid, apical wash 24 hrs post inoculation): 1.0 log

Cc1cccc(/C=N/Nc2cc(N3CCOCC3)nc(OCCc3ccccn3)n2)c1 [apilimod]
inhibition of virus-induced reduction in TEER [2]: 48% | reduction of viral load (genome copy number, ORF1b-nsp14) compared with virus infection control [3]: 0.1 log
